Measured values published in US10870634B2, “Histone demethylase inhibitors” (CELGENE QUANTICEL RESEARCH, INC., priority 2016, dated 2020).

What follows are compounds tested against T1, JMJD3 (Homo sapiens, UniProt O15054) (assay: JMJD3 in vitro enzyme inhibition assay (AlphaScreen)). Conditions: 1 nM JMJD3, 250 nM H3K27me3-biotin peptide, 1 μM alpha-ketoglutaric acid.
T1 construct: purchased BPS Bioscience 50115
Assay type: biochemical
Source text: This assay determines the ability of a test compound to inhibit Jarid1B, JMJD2C and JMJD3 demethylase activity. Baculovirus-expressed Jarid1B (GenBank Accession # NM-006618, AA 2-751) was purchased from BPS Bioscience (Cat #50121) or custom made by MolecularThroughput. Baculovirus-expressed JMJD2C (GenBank Accession # BC143571, AA 2-372) was purchased from BPS Bioscience (Cat #50105). Baculovirus-expressed JMJD3 (GenBank Accession # NM_001080424, AA1043-end) was purchased from BPS Bioscience (Cat #50115).
The ability of test compounds to inhibit the activity of JMJD3 was determined in 384-well plate format under the following reaction conditions: 1 nM JMJD3, 250 nM H3K27me3-biotin labeled peptide (Anaspec cat #64367), 1 μM alpha-ketoglutaric acid in assay buffer of 50 mM HEPES, pH 7.3, 0.005% Brij35, 0.5 mM TCEP, 0.2 mg/ml BSA, 50 μM sodium L-ascorbate, 5 μM ammonium ironII sulfate. Reaction product is determined quantitatively by AlphaScreen detection after the addition of detection reagents anti-H3K27me1 antibody, 5 μg/ml AlphaScreen® Streptavidin-coated Donor beads, and 5 μg/ml. AlphaScreen® Protein A Acceptor beads in 50 mM HEPES, pH 7.3, 10 mM NaCl, 0.005% Brij35, 10 mM :EDTA, 2 mg/ml BSA.
The assay reaction was initiated by the following: 3 μl of the mixture of 750 nM H3K27me3-biotin labeled peptide and 3 μM alpha-ketoglutaric acid with 3 μl of 11-point serial diluted inhibitor in 3% DMSO are added to each well of 384-well Proxiplate (Perkin Elmer), followed by the addition of 3 μl of 3 nM JMJD3 to initiate the reaction. The reaction mixture was incubated at room temp for 20 min, and terminated by the addition of 3 μl of appropriate dilution of anti-H3K27me1 antibody in 50 mM HEPES, pH 7.3, 10 mM NaCl, 0.005% Brij35, 10 mM EDTA, 2 mg/ml BSA. […] Plates were read by EnVision Multilabel Reader in AlphaScreen mode after minimum 2 hr incubation at room temp. […]
The ability to inhibit demethylase activity was quantified and the respective IC50 value was determined for substituted triazolylpyridine derivative compounds. […]

T1 sequence (O15054 1043-1682 isoform O15054-1): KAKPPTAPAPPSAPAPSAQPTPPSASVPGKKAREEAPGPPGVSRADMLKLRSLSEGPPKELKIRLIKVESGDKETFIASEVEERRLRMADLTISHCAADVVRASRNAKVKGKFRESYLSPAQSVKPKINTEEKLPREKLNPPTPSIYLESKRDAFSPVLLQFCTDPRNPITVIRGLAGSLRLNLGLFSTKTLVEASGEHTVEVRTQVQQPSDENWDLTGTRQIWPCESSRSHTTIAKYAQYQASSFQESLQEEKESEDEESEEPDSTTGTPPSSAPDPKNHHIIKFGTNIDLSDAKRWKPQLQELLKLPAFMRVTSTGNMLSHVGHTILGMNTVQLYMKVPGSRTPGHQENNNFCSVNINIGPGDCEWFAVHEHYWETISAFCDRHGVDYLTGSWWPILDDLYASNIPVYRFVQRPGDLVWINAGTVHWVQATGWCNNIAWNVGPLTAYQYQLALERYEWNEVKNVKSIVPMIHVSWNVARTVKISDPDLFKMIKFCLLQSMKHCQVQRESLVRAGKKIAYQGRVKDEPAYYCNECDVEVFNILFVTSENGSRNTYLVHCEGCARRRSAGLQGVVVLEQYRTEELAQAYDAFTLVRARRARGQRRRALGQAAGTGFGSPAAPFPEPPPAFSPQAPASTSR

Compound | IC50
Fc1cnccc1-c1nn[nH]c1C(F)(F)F [Example 1, 3-fluoro-4-[5-(trifluoromethyl)-1H-1,2,3-triazol-4-yl]pyridine] | > 10 µM
Fc1ccc(Cl)cc1Nc1cnccc1-c1nn[nH]c1C(F)(F)F [Example 2, N-(5-chloro-2-fluorophenyl)-4-[5-(trifluoromethyl)-1H-1,2,3-triazol-4-yl]pyridin-3-amine] | > 10 µM
FC(F)(F)c1[nH]nnc1-c1ccncc1NCC1CCCc2ccccc21 (stereo not drawn) [Example 3, N-[(1,2,3,4-tetrahydronaphthalen-1-yl)methyl]-4-[5-(trifluoromethyl)-1H-1,2,3-triazol-4-yl]pyridine-3-amine] | > 10 µM
